# Results: publication PMC11278568, “Implementation of Spore Display in Paenibacillus polymyxa with Different Hydrolytic Enzymes” (Microorganisms, 2024)
# How the values were obtained:
# Lip3 = biological target: T1, Lip3 (Paenibacillus polymyxa, UniProt A0ABX2ZB39); assay: p-nitrophenol release, […] nm, […] h; format: cell-based; conditions: enzyme displayed on spores (immobilised), OD600 1; 1 mM substrate; 50 mM Tris-HCl pH 7.5; 4-70 °C
# T1 construct: gene A7312_04500; fused via GGGGGSGGGGG linker to P. polymyxa CotE spore-coat anchor; gene amplified from DSM 365 genome (CP141264); printed NF024107.3 is a family model
# T1 sequence (A0ABX2ZB39 1-335): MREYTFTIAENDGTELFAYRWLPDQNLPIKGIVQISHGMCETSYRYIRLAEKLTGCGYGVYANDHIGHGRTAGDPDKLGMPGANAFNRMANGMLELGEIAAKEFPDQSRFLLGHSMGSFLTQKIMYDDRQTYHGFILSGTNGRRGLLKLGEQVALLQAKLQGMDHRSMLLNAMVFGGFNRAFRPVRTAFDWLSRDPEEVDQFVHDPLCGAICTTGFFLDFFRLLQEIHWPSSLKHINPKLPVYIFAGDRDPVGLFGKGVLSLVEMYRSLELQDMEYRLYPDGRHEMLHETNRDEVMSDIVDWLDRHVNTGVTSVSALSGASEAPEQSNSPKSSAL
# [1] = p-nitrophenol release, […] nm, […] h; format: cell-based, Paenibacillus polymyxa; conditions: enzyme displayed on spores (immobilised), OD600 1; 1 mM substrate; 50 mM Tris-HCl pH 7.5; 4-70 °C; side activity of the synthase
smiles,measurement,setting,value
"CCCCCCCC(=O)Oc1ccc([N+](=O)[O-])cc1 [C8, 4-Nitrophenyl-octanoate]","p-nitrophenol release, 410 nm, 1 h",Lip3,The displayed Lip3 showed higher hydrolysis activity with rising temperature
same,"p-nitrophenol release, 410 nm, 1 h",[1],"this enzyme showed hydrolytic activity for p-nitrophenyl caprylate (pNPC, C8)"
